The results in this text go back to paper PMC7918738, “Microtubule Destabilizing Sulfonamides as an Alternative to Taxane-Based Chemotherapy” (International Journal of Molecular Sciences, 2021).

Experiment [1] relates to SKOV3 ovarian carcinoma cells. Kind of experiment: Antiproliferative activity against SKOV3 (MTT). The format is cell-based. The conditions noted are these: Homo sapiens, SK-OV-3, 72 h. The procedure:
The in vitro antiproliferative activity of compounds 38, 42, and 45 against a panel of five human ovarian carcinoma cell lines (SKOV3, IGROV-1, A2780, OVCAR-8, and OVCAR-3) was evaluated by a colorimetric method (Table 3) and compared with paclitaxel. […] For SKOV3, the potency reduction observed for paclitaxel together with a sustained or improved (42 with a 7 nM IC50 value) potency for MDS results in a more favorable profile of the MDS compared to paclitaxel.
MCF7 (human breast carcinoma), SKOV-3 (human ovarian carcinoma), OVCAR-3 (human ovarian carcinoma), OVCAR-8 (human ovarian carcinoma), and HeLa (human cervical carcinoma) cell lines were cultured in Dulbecco’s Modified Eagle’s Medium (DMEM) (Gibco, Thermo Fischer Scientific) containing 10% (v/v) heat-inactivated fetal bovine serum (HIFBS) (Lonza-Cambrex, Karlskoga, Sweden), 2 mM L-glutamine (Lonza-Cambrex, Karlskoga, Sweden), 100 μg/mL streptomycin, and 100 IU/mL penicillin (Lonza-Cambrex) at 37 °C in humidified 95% air and 5% CO2. HT-29 (human colon carcinoma), IGROV-1 (human ovarian carcinoma), and A2780 (human ovarian carcinoma) cell lines were cultured in RPMI 1640 medium (Gibco, Thermo Fischer Scientific) supplemented with 10% HIFBS, 100 μg/mL streptomycin, and 100 IU/mL penicillin at 37 °C in humidified 95% air and 5% CO2 atmosphere. The presence of mycoplasma was routinely checked with MycoAlert kit (Lonza-Cambrex) and only mycoplasma-free cells were used in the experiments. Ovarian tumor cell lines were originally acquired from Dr Atanasio Pandiella from Centro de Investigación del Cáncer (CIC), Salamanca, Spain. HeLa, HT-29 and MCF7 tumor cell lines were provided by Dr Faustino Mollinedo from Centro de Investigaciones Biológicas Margarita Salas, Madrid, Spain.
MCF7, HeLa, and HT-29 cell proliferation, when treated with the corresponding compounds, were determined using the XTT (sodium 3’-[1(phenylaminocarbonyl)-3,4-tetrazolium]-bis(4-methoxy-6-nitro)-benzenesulfonic acid hydrate) cell proliferation kit (Roche Molecular Biochemicals, Mannheim, Germany). […] The absorbance of the formazan product generated was measured at 450 nm using a multi-well plate reader. SKOV-3, OVCAR-3, OVCAR-8, IGROV-1, A-2780 cell proliferation, when treated with the corresponding compound, were determined using MTT (3-(4,5-dimethylthiazol-2-yl)-2,5-diphenyl-2H-tetrazolium bromide) (Sigma-Aldrich, St. Louis, MO, USA). […] Absorbance was measured at 570 nm in a plate reader (Ultra Evolution, Tecan, Männedorf, Suiza). […] After 24 h incubation, to allow cells to attach to the plates, all compounds were added at 1 µM concentration and the effect on the proliferation was evaluated 72 h post-treatment. […]

The subject of a further experiment is SKOV3 cells. Kind of experiment: Annexin V-FITC/PI cell death quantification in SKOV3. The class given is cell-based, human. To be noted: SKOV3, 72 h; 38 600 nM, 42 50 nM, 45 400 nM, paclitaxel 10 nM. The procedure:
To determine whether the cytotoxic/antiproliferative effect of the MDS was due to apoptosis induction, cells were treated with variable concentrations of the drug for 72 h or 6 days, stained with Annexin V-FITC (AnV) and propidium iodide (PI), and analyzed by flow cytometry. Double negative cells (AnV^−/PI^−) were classified as live cells (L), cells positive for AnV and negative for PI (AnV^+/PI^−) were considered in Early Apoptosis (EA), cells negative for AnV and positive for PI (AnV^−/PI^+) were considered necrotic (N), and double-positive cells (AnV^+/PI^+) as Late Apoptosis (LA). In all cases, the compounds were used at the same concentrations previously used in cell cycle studies (Table 5).
MCF7, SKOV-3, and HeLa apoptotic cells were quantified using an Annexin V-FITC/PI apoptosis detection kit (Immunostep, Salamanca, Spain) according to the manufacturer’s guidelines. 1.5 mL/well of cells in the exponential growth phase at 2·10^4 cells/mL were seeded onto 12-well plates and left to attach overnight. After 24 h incubation, cells were treated with selected compounds. After 72 h (MCF7, SKOV-3, and HeLa) and 6 days (MCF7) post-treatment, attached and floating cells of treated and untreated wells were collected, centrifuged, resuspended in Annexin V binding buffer, and stained with Annexin V-FITC/PI. Cells were then incubated in darkness at room temperature for 15 min and a total of 30,000 cells were acquired and analyzed using the BD Accuri™ C6 Plus Flow Cytometer and Software (version 1.0.264.21, BD Biosciences, San José, CA, USA), respectively. Compounds were dissolved in DMSO and the final solvent concentration never exceeded 0.5% (v/v). Control wells included cells with 0.5% (v/v) DMSO.

Values joined by “and” are separate entries in the source; they are usually repeats but may differ in a detail not shown here. Equal entries are not always repeated.

In general, IC50 refers to the concentration that gives 50% inhibition. Lower therefore signals greater potency. Regarding `COc1ccc(S(=O)(=O)N(C)c2cc(OC)c(OC)c(OC)c2)cc1N` [Compound 42], in experiment [1], the IC50 was determined as 7 nM. In addition, in the experiment with SKOV3 cells, the “Annexin V-FITC/PI 72 h EA (early apoptosis)” value (“Annexin V-FITC/PI 72 h EA” for short) was 12.2%, the “Annexin V-FITC/PI 72 h LA (late apoptosis)” value (from here on “Annexin V-FITC/PI 72 h LA”) worked out at 2.0%, the “Annexin V-FITC/PI 72 h Live” value amounted to 85.1% and the “Annexin V-FITC/PI 72 h Necrosis” value is 0.7%.
Compound `CNc1ccc(S(=O)(=O)N(C)c2cc(OC)c(OC)c(OC)c2)cc1` [Compound 38] had an IC50 in experiment [1] of 46 nM. For the same compound, in the experiment with SKOV3 cells, the “Annexin V-FITC/PI 72 h EA” value was 31% and 30.5%; the “Annexin V-FITC/PI 72 h LA” value turned out to be 5.4%; the “Annexin V-FITC/PI 72 h Live” value is 62.3%; the “Annexin V-FITC/PI 72 h Necrosis” value worked out at 1.8%.
In experiment [1], `COc1ccc(S(=O)(=O)N(Cc2ccccc2)c2cc(OC)c(OC)c(OC)c2)cc1N` [Compound 45] returned an IC50 of 48 nM. In the experiment on SKOV3 cells, the “Annexin V-FITC/PI 72 h EA” value is 23% and 23.4%; the “Annexin V-FITC/PI 72 h LA” value was 2.6%; the “Annexin V-FITC/PI 72 h Live” value is given as 72.7%; the “Annexin V-FITC/PI 72 h Necrosis” value was 1.3%.
